Starred links: 1 amine or outer side, 2 acyl side, 3 side chain; linkers in the order of their positions; H or OH if unused. Non-standard residues stand in square brackets, D forms with d. Residues, ends and D or L forms follow the SMILES beside them. *: point of attachment. DOTA = O=C(O)CN1CCN(CC(=O)O)CCN(CC(=O)*)CCN(CC(=O)O)CC1; X1 = C[C@@H](C(=O)[*:2])n1cc([C@@H](CCC(=O)O)N[*:1])nn1; X2 = O=C(Cn1cc([C@H](Cc2ccc(O)cc2)N[*:1])nn1)[*:2]; Nle = CCCC[C@H](N)C(=O)O
Assays:
[1] = system: A431-CCK2R cells xenografts; assay: SPECT/CT imaging of mice with tumor xenografts; type: in vivo, female CD1-nu mice; settings: 24 h p.i.
Procedure: 10–14 days prior to the experiment, 6-week-old female CD1-nu mice were inoculated with 5 × 10^6 A431-CCK2R cells (0.1 mL, 5 × 10^7 cells/mL in PBS) subcutaneously in both shoulders. The mice were randomly assigned to groups of two animals. On the day of the experiment, ^177Lu-labeled conjugates (200 pmol, 100 µL, 2 µM in PBS, 20 MBq, 20 µg/kg) were injected via the tail vein. The mice were kept with food and water ad libitum. SPECT scans of 40 min (1 and 4 h p.i., frame duration 60 sec) or 60 min (24 h p.i., frame duration 80 sec) were acquired after an initial CT scan of 7.5 min (CT tube voltage 55 kV, CT tube current 145 µA) with a multi-pinhole NanoSPECT/CTplus (Bioscan Inc., […], and Mediso, Hungary). For the duration of the SPECT/CT scans, mice were kept under anesthesia with a mixture of isoflurane (1.5–2.5%) and oxygen and warmed by a constant air flow of 37 °C. The images were reconstructed with HiSPECT and analyzed in VivoQuant. A post-reconstruction filter was applied (Gauss, full width at half max, 1 mm) to the SPECT images, and the scale was adjusted to visualize important organs and tissues (0.001–0.004 kBq/voxel). n = 2 animals per group.

A431-CCK2R cells = assay: cell binding and internalization; type: cell-based; settings: 177Lu-labeled, % of applied radioactivity

## CCCC[C@H](NC(=O)[C@H](Cc1c[nH]c2ccccc12)NC(=O)Cn1cc([C@H](Cc2ccc(O)cc2)NC(=O)[C@H](C)n2cc([C@@H](CCC(=O)O)NC(=O)[C@@H](CCC(=O)O)NC(=O)[C@@H](CCC(=O)O)NC(=O)[C@@H](CCC(=O)O)NC(=O)[C@@H](CCC(=O)O)NC(=O)[C@@H](CCC(=O)O)NC(=O)CN3CCN(CC(=O)O)CCN(CC(=O)O)CCN(CC(=O)O)CC3)nn2)nn1)C(=O)N[C@@H](CC(=O)O)C(=O)N[C@@H](Cc1ccccc1)C(N)=O [NMG 3, DOTA-(DGlu)6 -Ψ[Tz]-Ala-Tyr-Ψ[Tz]-Gly-Trp-Nle-Asp-Phe-NH2] ({DOTA}-[dE][dE][dE][dE][dE][X1][X2]W[Nle]DF-NH2)
[1]
  visualization of tumor xenografts by SPECT/CT: clearly visualized
A431-CCK2R cells
  Internalization 4 h Total (%): 76.5 ± 2.8%

Reference: PMC8199036, “Improved Tumor-Targeting with Peptidomimetic Analogs of Minigastrin ^177Lu-PP-F11N” (Cancers, 2021)
